Source: US9486402B2, “Compositions containing berberine or analogs thereof for treating rosacea or red face related skin disorders” (Derman Biomedicine Co. Ltd, priority 2009, dated 2016)

Assays:
[1] = test system: cathelicidin-induced lesions; experiment: Mouse model of rosacea (subcutaneous cathelicidin peptide), topical treatment; type: in vivo, BALB/c and C57BL/6 mice; conditions: topical formulation containing 0.1% berberine twice a day for 2 days; 4th day; vs controls (n=3 each)
Protocol: The animal model of rosacea: the animal model of rosacea was adopted from previous reported^18. Briefly, BALB/c and C57BL/6 mice, shaved 24 h before treatments, were injected subcutaneously on the back with 40 μl of cathelicdin peptide (320 μM) twice a day. Forty-eight hours after the initial injection (four injections in total), erythema and edema were observed on the injected site mimicking the clinical features of rosacea.
In our experiments, cathelicidin-injected mice were treated with or without topical berberine twice a day to observe the effect of berberine on reducing inflammation. […] The cathelicidin-injected mice were then divided into 2 groups, which were treated with berberine (n=3) or not treated with berberine (n=3; as controls), respectively, for a subsequent 2 days. The topical formulation containing 0.1% berberine was applied on the cathelicidin-induced lesions twice a day. The erythematous or inflammatory lesions lasted for more than 7 days in the control group.

[2] = test system: IL-8 release from human keratinocytes; experiment: Cathelicidin peptide (LL-37)-induced IL-8 release from human keratinocytes, ELISA; type: cell-based
Protocol: (§1) For our in vitro study, berberine (Sigma, St. Louis, Mo., USA) was dissolved in water, methanol, ethanol or dimethyl sulfoxide (DMSO). Normal human keratinocytes (Invitrogen, CA, USA) were grown in EpiLife medium (Invitrogen, CA, USA) supplemented with 0.06 mM Ca^+2, 1% EpiLife defined growth supplement, and 1% penicillin/streptomycin (Invitrogen, CA, USA). Cells were grown at 37° C. in a humidified atmosphere of 5% CO2 and 95% air. The human keratinocytes were cultured to confluence and treated with synthetic cathelicidin peptides (LL-37) (6.4 μM) for 16 h to induce inflammatory response similar to that observed in rosacea. Some of the cathelicidin-treated keratinocyte cultures were co-incubated with berberine of concentrations from 1.25 μg/ml to 12.5 μg/ml. The keratinocytes cultures treated with cathrlicidin or cathrlicidin with 1% ethanol and without berberine were used as negative controls. Supernatants were collected and placed in a sterile 96-well plate for ELISA of interleukin-8 (IL-8), interleukin-1 alpha (IL-1 alpha), and […] (VEGF) in accordance with the manufacturer's instructions (R&D Systems, MN, USA). […]
(§2) FIG. 1. […] Keratinocytes were stimulated by cathelicidin peptide (LL-37), and the release of IL-8 (FIG. 1A), IL-1 alpha (FIG. 1B) and VEGF (FIG. 1C) by the keratinocytes was evaluated by ELISA assay.

[3] = test system: VEGF release from human keratinocytes; experiment: Cathelicidin peptide (LL-37)-induced VEGF release from human keratinocytes, ELISA; type: cell-based; conditions: 1.25 μg/ml berberine; LL-37 6.4 μM, 16 h; vs cathelicidin peptide with 1% ethanol control; P<0.05
Protocol: as §1, §2

[4] = test system: IL-1 alpha release from human keratinocytes; experiment: Cathelicidin peptide (LL-37)-induced IL-1 alpha release from human keratinocytes, ELISA; type: cell-based; conditions: 1.25 μg/ml berberine; LL-37 6.4 μM, 16 h; vs cathelicidin peptide with 1% ethanol control; P<0.05
Protocol: as §1, §2

patients with rosacea = experiment: Open-label human clinical study on patients with rosacea; type: in vivo; conditions: for overall erythema severity (score 0 to 3): baseline 2.35±0.6; for overall erythema severity (score 0 to 3) / IGA score (7-point, 0 clear to 6 severe): P<0.0001 vs W0; for IGA score (7-point, 0 clear to 6 severe): baseline 4.1±1.3
Protocol: Method: an open-label clinical study was carried out to determine the efficacy of the topical berberine formulations of this invention for the treatment of rosacea and related skin disorders. Patients included in this study were diagnosed by dermatologists to have clinically defined rosacea. All patients were given 0.1% berberine gel twice a day for 6 weeks. At the time points of treatment initiation, and 2-weeks and 6-weeks after treatment, the patients were evaluated for their rosasea symptoms. The patients were not allowed to use other medications, including antibiotics, for their skin conditions. Only oral antihistamines were allowed for relief of pruritus symptoms. To evaluate the efficacy of treatment, the standard grading system for rosacea developed by the National Rosacea Society Expert Committee on the Classification and Staging of Rosacea was used^3. Additionally, the investigator's global assessment (IGA) and overall erythema severity of the patients were scored at week 0, week 2, and week 6 of berberine therapy. The IGA was expressed according to a 7-point scoring system with a range of 0 (clear) to 6 (severe). The severity of overall facial erythema and telangiectasia, respectively, was graded as ‘none’, ‘mild’, ‘moderate’, or ‘severe’ with scores from 0 to 3. The grading system used to assess overall facial erythema severity was described previously^38. Results: a total of 20 patients with rosacea (18 females and 2 males) were enrolled in this study. The mean age of the study population was 43.3 (19-85) years. The mean duration of rosacea prior to berberine treatment was 4 (1-24) years. Among the 20 patients with rosacea, 13 cases were of erythematotelangiectatic type (65%), 7 cases papulopustular type (35%), and […].

[5] = 0.1% berberine gel twice a day, end of treatment (6 weeks), 19 of the 20 patients

With `COc1ccc2cc3[n+](cc2c1OC)CCc1cc2c(cc1-3)OCO2` [berberine, 5,6-dihydro-9,10-dimethoxybenzo(g)-1,3-benzodioxolo (5,6-a) quinolizinium] the “erythema and vascular dilatation” value [1] was “significant reduced”, the “inhibition of cathelicidin induced inflammatory response (IL-8, IL-1 alpha, VEGF release)” value ([2]; 0-12.5 μg/ml, especially when concentration larger than 6.25 μg/ml) was “significant inhibit cathelicidin induced inflammatory response in a dose-dependent manner” and the “decrease of the release of IL-8” value ([2]; 1.25 μg/ml berberine, LL-37 6.4 μM, 16 h, vs cathelicidin peptide with 1% ethanol control, P<0.05) was 31.4%. The “decrease of the release of VEGF” value [3] was 29.1%, the “decrease of the release of IL-1 alpha” value [4] was 24.9% and the “cases with transient itchy/stinging sensation in the area of topical medication” value (patients with rosacea; 0.1% berberine gel twice a day for 6 weeks, 2 cases of 20, tolerable without discontinuation) was 10%. For the same compound, the serious adverse events (patients with rosacea; 0.1% berberine gel twice a day for 6 weeks, 20 patients) was “no serious adverse event”, the “patients with a mild (1) to none (0) erythema rating” value (patients with rosacea; [5]) was 95% and the “patients with a mild (2) to clear (0) IGA rating” value (patients with rosacea; [5]) was 95%. For the same compound, the “overall erythema severity (score 0 to 3)” value (patients with rosacea; 0.1% berberine gel twice a day, week 2) was 1.5±0.5, the “IGA score (7-point, 0 clear to 6 severe)” value (patients with rosacea; 0.1% berberine gel twice a day, week 2, 20 patients) was 2.6±0.9 and the “overall erythema severity (score 0 to 3)” value (patients with rosacea; 0.1% berberine gel twice a day, week 6) was 0.95±0.4. For the same compound, the “IGA score (7-point, 0 clear to 6 severe)” value (patients with rosacea; 0.1% berberine gel twice a day, week 6, 20 patients) was 1.6±0.8.
